Experimental data reported in US20240025919A1, “AZA-TETRACYCLIC OXAZEPINE COMPOUNDS AND USES THEREOF” (Genentech, Inc., priority 2022, published 2024).

Assays:
KRAS G12D = KRAS G12D (Homo sapiens (Human), UniProt P01116, G12D); assay: KRAS G12D LoEnz Biochemical Assay, BODIPY-GDP Exchange TR-FRET (SOS1-mediated nucleotide exchange); conditions: read-out: KRas (G12D) GDP HTRF IC50
KRAS WT [1] = target: T1, KRAS WT (Homo sapiens (Human), UniProt P01116); assay: KRAS WT Biochemical Assay, BODIPY-GDP Exchange TR-FRET (Example 501; 3 nM KRAS WT, 3 nM SOS1, 60-minute incubation); conditions: read-out: KRas(wt) GDP HTRF IC50
Summary of the method: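 SOS1-mediated exchange assay: 3 nM biotin-KRAS WT with terbium-streptavidin, started with 3 nM SOS1 and 300 nM BODIPY-GDP, HEPES pH 7.5 with MgCl2. TR-FRET (520/490 nm) read after 60 min; normalized to DMSO and full-inhibition control, IC50 from 4-parameter Hill fit.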

KRAS WT [2] = target: T1, KRAS WT; assay: KRAS WT Biochemical Assay, BODIPY-GDP Exchange TR-FRET (Example 502; 0.06 nM KRAS WT, 15 nM GDP, 300 nM SOS1, 120-minute incubation); conditions: read-out: KRas HTRF IC50
Summary of the method: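 Biotin-tagged recombinant KRAS WT (0.06 nM) preloaded with 15 nM GDP and Tb-streptavidin, 10 min RT, then exchange started with 300 nM SOS1 plus 300 nM BODIPY-GDP in HEPES pH 7.5 buffer with MgCl2. TR-FRET 520/490 ratio read after 120 min; normalized to DMSO and full-inhibition control; IC50 from 4-parameter fit.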

Chain of KRAS G12D (P01116-2 other isoform, or with tags, fused parts or gaps G12D): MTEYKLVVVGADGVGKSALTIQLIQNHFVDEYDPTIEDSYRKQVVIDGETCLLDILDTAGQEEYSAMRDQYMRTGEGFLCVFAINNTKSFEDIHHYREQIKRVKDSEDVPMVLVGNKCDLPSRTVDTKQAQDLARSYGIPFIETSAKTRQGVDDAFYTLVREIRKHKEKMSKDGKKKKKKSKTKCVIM
T1 sequence (P01116-2 other isoform, or with tags, fused parts or gaps): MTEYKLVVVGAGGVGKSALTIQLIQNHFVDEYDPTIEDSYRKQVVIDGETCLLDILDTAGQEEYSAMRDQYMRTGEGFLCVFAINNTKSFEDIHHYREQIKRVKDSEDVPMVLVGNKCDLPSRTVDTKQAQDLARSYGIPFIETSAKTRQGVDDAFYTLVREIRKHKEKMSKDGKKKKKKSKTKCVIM

Compound | IC50 (KRAS G12D) | IC50 (KRAS WT [1]) | IC50 (KRAS WT [2])
C#Cc1c(F)ccc2cc(O)cc(-c3nc4c5c(nc(OC[C@@]67CCCN6C[C@H](F)C7)nc5c3F)N3C[C@H]5CC[C@H](N5)[C@H]3[C@H](C)O4)c12 [Compound 7, 5-Ethynyl-6-fluoro-4-((5S,5aS,6S,9R)-1-fluoro-12-(((2R,7aS)-2-fluorotetrahydro-1H-pyrrolizin-7a(5H)-yl)methoxy)-5-methyl-5a,6,7,8,9,10-hexahydro-5H-4-oxa-3,10a,11,13,14-pentaaza-6,9-methanonaphtho[1,8-ab]heptalen-2-yl)naphthalen-2-ol] | 0.059 nM | 0.296 nM | 0.288 nM
C=C1CN2CCC[C@@]2(COc2nc3c4c(nc(-c5cc(O)cc6cccc(CC)c56)c(F)c4n2)O[C@@H](C)[C@@H]2[C@@H]4CC[C@H](CN32)N4)C1 [Compound 80] | 0.068 nM | 3.39 nM | 3.48 nM
Cc1cc(N)c(F)c(-c2nc3c4c(nc(OC[C@@]56CCCN5C[C@H](F)C6)nc4c2F)N2C[C@H]4CC[C@H](N4)[C@H]2[C@H](C)O3)c1C(F)(F)F [Compound 34, 2-Fluoro-3-((5S,5aS,6S,9R)-1-fluoro-12-(((2R,7aS)-2-fluorotetrahydro-1H-pyrrolizin-7a(5H)-yl)methoxy)-5-methyl-5a,6,7,8,9,10-hexahydro-5H-4-oxa-3,10a,11,13,14-pentaaza-6,9-methanonaphtho[1,8-ab]heptalen-2-yl)-5-methyl-4-(trifluoromethyl)aniline] | 0.235 nM | 2.13 nM | 4.29 nM
Cc1c(F)c(N)cc(-c2nc3c4c(nc(OC[C@@]56CCCN5C[C@H](F)C6)nc4c2F)N2C[C@H]4CC[C@H](N4)[C@H]2[C@H](C)O3)c1C(F)(F)F [Compound 6, 2-Fluoro-5-((5S,5aS,6S,9R)-1-fluoro-12-(((2R,7aS)-2-fluorotetrahydro-1H-pyrrolizin-7a(5H)-yl)methoxy)-5-methyl-5a,6,7,8,9,10-hexahydro-5H-4-oxa-3,10a,11,13,14-pentaaza-6,9-methanonaphtho[1,8-ab]heptalen-2-yl)-3-methyl-4-(trifluoromethyl)aniline] | 0.074 nM | 0.48 nM | 0.548 nM
C[C@@H]1Oc2nc(-c3cc(N)cc(F)c3C(F)(F)F)c(F)c3nc(OC[C@@]45CCCN4C[C@H](F)C5)nc(c23)N2C[C@H]3CC[C@H](N3)[C@@H]12 [Compound 17, 3-fluoro-5-((5S,5aS,6S,9R)-1-fluoro-12-(((2R,7aS)-2-fluorotetrahydro-1H-pyrrolizin-7a(5H)-yl)methoxy)-5-methyl-5a,6,7,8,9,10-hexahydro-5H-4-oxa-3,10a,11,13,14-pentaaza-6,9-methanonaphtho[1,8-ab]heptalen-2-yl)-4-(trifluoromethyl)aniline] | 0.133 nM | 0.559 nM | 1.05 nM
CCc1cccc2cc(O)cc(-c3nc4c5c(nc(OC[C@@]67CCCN6C[C@H](F)C7)nc5c3F)N3C[C@H]5CC[C@H](N5)[C@H]3[C@H](C)O4)c12 [Compound 10, 5-ethyl-4-((5S,5aS,6S,9R)-1-fluoro-12-(((2R,7aS)-2-fluorotetrahydro-1H-pyrrolizin-7a(5H)-yl)methoxy)-5-methyl-5a,6,7,8,9,10-hexahydro-5H-4-oxa-3,10a,11,13,14-pentaaza-6,9-methanonaphtho[1,8-ab]heptalen-2-yl)naphthalen-2-ol] | 0.082 nM | 6.46 nM | 13.3 nM
Cc1c(F)c(N)cc(-c2nc3c4c(nc(OC[C@@H]5CC[C@H]6COCCN65)nc4c2F)N2C[C@H]4CC[C@H](N4)[C@H]2[C@H](C)O3)c1C(F)(F)F [Compound 31, 2-fluoro-5-((5S,5aS,6S,9R)-1-fluoro-12-(((6S,8aS)-hexahydro-1H-pyrrolo[2,1-c][1,4]oxazin-6-yl)methoxy)-5-methyl-5a,6,7,8,9,10-hexahydro-5H-4-oxa-3,10a,11,13,14-pentaaza-6,9-methanonaphtho[1,8-ab]heptalen-2-yl)-3-methyl-4-(trifluoromethyl)aniline] | 0.087 nM | 1.55 nM | 7.11 nM
Cc1c(F)c(N)cc(-c2nc3c4c(nc(OCC5CN(CC(F)F)C5)nc4c2F)N2C[C@H]4CC[C@H](N4)[C@H]2[C@H](C)O3)c1C(F)(F)F [Compound 128, 5-((5S,5aS,6S,9R)-12-((1-(2,2-Difluoroethyl)azetidin-3-yl)methoxy)-1-fluoro-5-methyl-5a,6,7,8,9,10-hexahydro-5H-4-oxa-3,10a,11,13,14-pentaaza-6,9-methanonaphtho[1,8-ab]heptalen-2-yl)-2-fluoro-3-methyl-4-(trifluoromethyl)aniline] | 0.48 nM | – | 156 nM
Cc1c(F)c(N)cc(-c2nc3c4c(nc(OC[C@H]5CC(F)(F)CN5C)nc4c2F)N2C[C@H]4CC[C@H](N4)[C@H]2[C@H](C)O3)c1C(F)(F)F [Compound 66, 5-((5S,5aS,6S,9R)-12-(((R)-4,4-difluoro-1-methylpyrrolidin-2-yl)methoxy)-1-fluoro-5-methyl-5a,6,7,8,9,10-hexahydro-5H-4-oxa-3,10a,11,13,14-pentaaza-6,9-methanonaphtho[1,8-ab]heptalen-2-yl)-2-fluoro-3-methyl-4-(trifluoromethyl)aniline] | 2.29 nM | – | 274 nM
Cc1cc(N)cc(-c2nc3c4c(nc(OC[C@@]56CCCN5CC5(CC5(F)F)C6)nc4c2F)N2C[C@H]4CC[C@H](N4)[C@H]2[C@H](C)O3)c1C(F)(F)F (stereo partly drawn) [Compound 68, 3-((5S,5aS,6S,9R)-12-(((7a′S)-2,2-Difluorodihydro-1′H,3′H-spiro[cyclopropane-1,2′-pyrrolizin]-7a′(5′H)-yl)methoxy)-1-fluoro-5-methyl-5a,6,7,8,9,10-hexahydro-5H-4-oxa-3,10a,11,13,14-pentaaza[6,9]methanonaphtho[1,8-ab]heptalen-2-yl)-5-methyl-4-(trifluoromethyl)aniline] | 0.07 nM | – | 0.112 nM
Cc1c(F)c(N)cc(-c2nc3c4c(nc(OC[C@]5(CC(F)F)CCCN5C)nc4c2F)N2C[C@H]4CC[C@H](N4)[C@H]2[C@H](C)O3)c1C(F)(F)F (single isomer, unassigned) [150 (isomer 2)] | 0.25 nM | – | 64.5 nM
Cc1cc(-c2nc3c4c(nc(OC[C@@]56CCCN5C[C@H](F)C6)nc4c2F)N2C[C@H]4CC[C@H](N4)[C@H]2[C@H](C)O3)cc(N)c1F [Compound 13, 2-fluoro-5-((5S,5aS,6S,9R)-1-fluoro-12-(((2R,7aS)-2-fluorotetrahydro-1H-pyrrolizin-7a(5H)-yl)methoxy)-5-methyl-5a,6,7,8,9,10-hexahydro-5H-4-oxa-3,10a,11,13,14-pentaaza-6,9-methanonaphtho[1,8-ab]heptalen-2-yl)-3-methylaniline] | 30.7 nM | 1540 nM | 1770 nM
C[C@@H]1Oc2nc(-c3cc(N)cc(C(F)(F)F)c3C(F)(F)F)c(F)c3nc(OC[C@@]45CCCN4C[C@H](F)C5)nc(c23)N2C[C@H]3CC[C@H](N3)[C@@H]12 [Compound 115, 3-((5S,5aS,6S,9R)-1-fluoro-12-(((2R,7aS)-2-fluorotetrahydro-1H-pyrrolizin-7a(5H)-yl)methoxy)-5-methyl-5a,6,7,8,9,10-hexahydro-5H-4-oxa-3,10a,11,13,14-pentaaza-6,9-methanonaphtho[1,8-ab]heptalen-2-yl)-4,5-bis(trifluoromethyl)aniline] | 0.39 nM | – | 34.1 nM
